Results: publication PMC11672292, “Discovery of Balasubramide Derivative with Tissue‐Specific Anti‐Inflammatory Activity Against Acute Lung Injury by Targeting VDAC1” (Advanced Science, 2024)

Assays:
[1] = system: LPS-stimulated RAW264.7 cells; test: LPS-induced TNF-α release in RAW264.7 macrophages (ELISA); type: cell-based, mouse; settings: for IC50: read-out: IC50, inhibition of LPS-induced TNF-α release
Description: The anti‐inflammatory effects of all (+)‐balasubramide derivatives were evaluated in Lipopolysaccharide (LPS, L2630, Sigma–Aldrich, USA)‐induced macrophage inflammation model. RAW264.7 cells were pretreated with various compounds or (+)3C‐20 at different concentrations for 3 h, and then stimulated with LPS (100 ng mL^−1) for 2 h for the detection of pro‐inflammatory factors expressions. Similarly, following 3 h co‐incubation with (+)3C‐20, mouse BMDMs were stimulated with LPS (100 ng mL^−1) for 3 h. TNF‐α protein in the culture medium supernatant was measured by a commercial ELISA kit (#1 217 202, DAKEWE, China) following the manufacture's protocols.

[2] = system: mice; test: Acute toxicity (LD50, sequential method), single intravenous injection; settings: for Mortality: i.v.
Description: To test the safety of (+)3C‐20 in mice, as previously reported,^[ [31] ^] we estimated the acute toxicity of (+)3C‐20 in mice using a sequential method.

[3] = system: RAW264.7 cells; test: CCK-8 cell viability assay; type: cell-based, mouse; settings: 10 μM, 24 h
Description: Cell viability was determined by CCK‐8 assay. RAW264.7 cells or mouse BMDMs cultured in a 96‐well plate were pretreated with various compounds at 10 µM or different concentrations of (+)3C‐20 for 24 h when cells reached 70% confluence and then were treated with DMEM containing 5 µL CCK‐8 reagent (A311, Vazyme, China) in a humidified atmosphere of 5% CO2 and 95% air for 1 h at 37 °C. The UV absorption values of the medium with CCK‐8 were measured at 450 nm in a ThermoFisher plate‐reader (VL0L0TD2, Waltham, USA).

SMILES	IC50 ([1]; RAW264.7 cells)	Mortality ([2]; dosage 60.00 mg/kg)	Mortality ([2]; dosage 71.14 mg/kg)	Mortality ([2]; dosage 84.34 mg/kg)	Mortality ([2]; dosage 100.00 mg/kg)	LD50 ([2]; single intravenous injection)	effect on the release of TNF-α ([1]; LPS-induced RAW 264.7 macrophage inflammation model)	inhibition at 10 µM ([1]; Mus musculus, 10 μM + LPS (100 ng/mL), RAW264.7 cells, n = 3, read-out: Inhibition rate (%) of TNF-α release)	cell viability [3]
O=C(CC(CO)N1CCN(c2ccc(OC(F)(F)F)cc2)CC1)Nc1ccc(Cl)cc1 (stereo not shown) [VBIT-4]	19.8 µM	0	14.286	83.333	100	75.828 mg/kg			
CN1CCc2c([nH]c3ccccc23)C(c2ccccc2)C(O)C1=O (single isomer, unassigned; (+)) [(+)3J]							a certain inhibitory effect	19.1 ± 1.83%	95.09 ± 1.19
O=C(O)CNC(=O)C1(Nc2ccccc2)CCN(Cc2cccc3ccccc23)CC1 [VBIT-12, reference compound]	83.1 µM								
